Experimental data taken from US6780887B1, “Anti-ischemic compounds” (Societe de Conseils de Recherches et d'Applications …, priority 1999, dated 2004).
“Also recorded” adds a separate entry of the source.

Key:
[1] = tested on: purified mitochondria obtained from rat livers; experiment: In vitro mitochondrial respiration (stages III and IV, RCR) of purified mitochondria preincubated with compounds; format: biochemical; details: for RCR increase (*): in % relative to the control brought to 100%; for Concentration (optimum concentration at which the effect was observed): RCR increase; for Concentration of maximum/optimal effect on RCR (optimal concentration in pre-incubation): rat liver mitochondria preincubated with compound; for Effect on mitochondria RCR (in words) / Effect on respiration stage IV (in words): in vitro
Procedure: The mitochondria are isolated according to the method described by Nowicki et al., J. of Cerebral Blood Flow and Metabolism 2, p. […] The mitochondrial respiration is measured by an oxygen electrode connected to a recorder. The RCR represents the respiratory control, and represents the ratio of the oxygen consumption in the presence of an endogenous substrate (glutamate/malate) to the consumption after ADP phosphorylation in ATP.
The RCR has been subsequently calculated.

[2] = tested on: heart mitochondria; experiment: In vivo effect on heart mitochondria RCR after treatment of rats per os for one day; design: species or system rat
Procedure: The following day, the rats are sacrificed and their mitochondria are isolated from the heart. Their respiratory activity is measured every 15 minutes for the 75 minutes following the isolation procedure.

[3] = tested on: endothelial cells of the human umbilical vein; experiment: Protection of ATP content in endothelial cells incubated under hypoxia; format: cell-based; details: for Average maximum protection of the decrease in ATP content induced by hypoxia: endothelial cells
Excerpt: This variability is inherent to the experimental model. Indeed, for each experiment, a different culture is used from different umbilical cord isolated cells and there is a behaviour variability of the cells from one cord to another.

[4] = Stability in human plasma (GC); format: in vitro ADME; details: 24 hours, 37° C.
Procedure: The compounds of examples 1 and 2 have been submitted to stability tests in order to evaluate their behaviour when in contact with plasma after a 3 and 24 hour incubation at a temperature of 37° C. These tests have been performed using GC following the evolution of chromatograms of the different esters compared to an internal standard as a function of time.
The injection of GC/MF pure products has been performed in the following conditions:
injection temperature: 250° C.
initial temperature: 40° C.
final temperature: 250° C.
temperature gradient: 10° C./mn
The different compounds have been prepared as follows: 10 μl of pure compound have been dissolved in 100 μl plasma at a temperature of 37° C. The resulting solution is stirred. After a 3 or 24 hour period of time, 5 μl of internal standard (N-benzylamine) and 1 ml ether are added to the solution maintained at 37° C. The sample is centrifuged for 10 minutes at a rate of 13,000 rpm. 1 μl of the supernatant phase (ether phase) is injected in GC. The sample is then GC analyzed. […] No other peak optionally corresponding to metabolization products is observed.

[5] = tested on: hepatic mitochondria; experiment: In vivo effect on liver mitochondria RCR after treatment of rats per os for 5 days; design: species or system rat; details: for Effect on respiration stage IV (in words): liver mitochondria
Procedure: Following the treatment, the rats are sacrificed. The mitochondria are isolated from the liver and their respiratory activity is measured every 15 minutes for the 75 minutes following the isolation procedure.

[6] = tested on: neutrophil adherence to the endothelial cells; experiment: Neutrophil adherence to endothelial cells incubated under hypoxia; format: cell-based, human; details: 10^−8 mol/l
Procedure: After incubation, the cells are co-incubated with a non stimulated human neutrophil suspension.

[7] = tested on: Promyelocyte cells; experiment: Etoposide-induced apoptosis in promyelocyte cells; format: cell-based; details: cells incubated with etoposide
Procedure: Promyelocyte cells are incubated in the presence of apoptosis-inducing agents like the etoposide, a type II topoisomerase inhibitor. After incubation, different parameters indicative of the apoptosis are detectable: caspase activation, cytochrome C release by the mitochondria, DNA fragmentation, etc.

[8] = 10^−7 M (optimum concentration)
[9] = 10^−6 M (optimum concentration)
[10] = endothelial cells under hypoxia

## CCOC(=O)CN(C)C(=O)C1CCCCC1 [Ethyl N-methyl-N-cyclohexamido ethanoate, Ethyl N-methyl -N-cyclohexamido Ethanoate]
[1]; [8]
  RCR increase (*): 15%
[1]; rat liver mitochondria
  Concentration (optimum concentration at which the effect was observed): 10^−7 M

## O=C(CC(=O)Nc1ccccc1)Nc1ccccc1 [N,N′-diphenylmalonamide, N-N′-diphenyl malonamide]
[1]; [8]
  RCR increase (*): 5%
[1]; rat liver mitochondria
  Concentration (optimum concentration at which the effect was observed): 10^−7 M

## O=C(CC(=O)O[C@@H]1C=CCC1)O[C@@H]1C=CCC1 [di-(S)-cyclopenten-2-yl malonate, di-(S)-2-cyclopenten-2-yl malonate]
[1]; [9]
  RCR increase (*): 18%
[1]; rat liver mitochondria
  Concentration (optimum concentration at which the effect was observed): 10^−6 M

## C=CCOC(=O)C12CC1COC2=O (centres unmarked) [example 2, 2-propenyl-3-Oxa-2-Oxobicyclo[3.1.0]-hexane-1-carboxylate]
[2]; one day treatment, 3.6 mg/kg
  Heart mitochondria RCR increase: 56%
[3]; 10^−4 mol/l
  Average maximum protection of the decrease in ATP content induced by hypoxia: 92.5%
[3]; [10]
  Concentration at which ATP protection becomes negligible: 10^−6 mol/l
[4]
  Stability in human plasma (GC peak of compound): not found any more
[5]; 5 days, 0.18 mg/kg
  Activity on liver mitochondria RCR (in words): weakly active
[5]; 5 days, 3.6 mg/kg, liver
  Mitochondria RCR increase (maximum): 17%
[5]; 5 days
  Effect on respiration stage IV (in words): decrease
[1]
  Optimal concentration in pre-incubation (mass concentration): 0.0183 µg/mL
  Concentration of maximum/optimal effect on RCR (optimal concentration in pre-incubation): 10^−7 mol/l
[1]; rat liver mitochondria
  Effect on mitochondria RCR (in words): have an action on the RCR
  Effect on respiration stage IV (in words): decrease effect
[6]
  Maximum inhibition of hypoxia induced neutrophil adherence increase: 71%

## Dicyclopenten-2-yl malonate [example 1]
[2]; one-day treatment, 2.36 mg/kg
  Heart mitochondria RCR increase: 41%
[7]
  Apoptosis induction (in words): apoptosis induction inhibition is observed
  Caspase 3 activation: inhibited
  Cytochrome C release by the mitochondria: inhibited
  DNA fragmentation: inhibited
[3]; 10^−4 mol/l to 10^−5 mol/l
  Average maximum protection of the decrease in ATP content induced by hypoxia: 92.1%
[3]; [10]
  Concentration at which ATP protection becomes negligible: 10^−8 mol/l
  Protection of the decrease in ATP content induced by hypoxia (in words): able to protect reproducibly
[4]
  Stability in human plasma (GC peak of compound): still observed
[5]; 5 day treatment, 2.36 mg/kg
  Hepatic mitochondria RCR increase: 25%
[5]; 5 days, dose higher than 2.36 mg/kg
  RCR versus control (in words): falls slightly below the control values
[5]; 5 days
  Effect on respiration stage IV (in words): clear decrease
[1]; rat liver mitochondria
  Concentration at which the RCR effect becomes negligible: 10^−9 mol/l
  Effect on mitochondria RCR (in words): have an action on the RCR; also recorded: significatively increases
  Effect on respiration stage IV (in words): strongly decreases
[1]
  Concentration of maximum/optimal effect on RCR (optimal concentration in pre-incubation): 10^−6 mol/l

## Ethyl 2,6-dimethyl-N-phenylamido Ethanoate
[1]; [9]
  RCR increase (*): 13%
[1]; rat liver mitochondria
  Concentration (optimum concentration at which the effect was observed): 10^−6 M

## Ethyl N-phenylamido Ethanoate [Ethyl N-phenlyamido ethanoate]
[1]; [9]
  RCR increase (*): 6.6%
[1]; rat liver mitochondria
  Concentration (optimum concentration at which the effect was observed): 10^−6 M
